Legend:
Test in all cases: DiscoverX KINOMEscan kinase profiling (468 assays)
Type in all cases: binding
human kinome [1] = target: human kinome (Homo sapiens, UniProt P51451); conditions: BLK; 100 nM; read-out: Percent Control
How it was run: (§1)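 VIP152 was run in DMSO, alongside a DMSO control. Readout was qPCR of DNA-tagged kinase still bound to bead-immobilized biotinylated kinase ligands after compound competition.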

human kinome [2] = target: human kinome (Homo sapiens, UniProt P51956); conditions: read-out: Percent Control
How it was run: as §1

human kinome [3] = target: human kinome (Homo sapiens, UniProt P53778); conditions: read-out: Percent Control
How it was run: as §1

human kinome [4] = target: human kinome (Homo sapiens, UniProt Q9NRM7); conditions: LATS2; 100 nM; read-out: Percent Control
How it was run: as §1

human kinome [5] = target: human kinome (Homo sapiens, UniProt Q16832); conditions: DDR2; 100 nM; read-out: Percent Control
How it was run: as §1

human kinome [6] = target: human kinome (Homo sapiens, UniProt Q86UE8); conditions: kinase TLK2 (Entrez TLK2); compound concentration 1000 nM; read-out: Percent Control
How it was run: as §1

human kinome [7] = target: human kinome (Homo sapiens, UniProt P43403); conditions: kinase ZAP70 (Entrez ZAP70); compound concentration 1000 nM; read-out: Percent Control
How it was run: as §1

human kinome [8] = target: human kinome (Homo sapiens, UniProt Q9NSY1); conditions: BIKE (Entrez BMP2K); 100 nM; read-out: Percent Control
How it was run: as §1

human kinome [9] = target: human kinome (Homo sapiens, UniProt Q9Y2H1); conditions: read-out: Percent Control
How it was run: as §1

human kinome [10] = target: human kinome (Homo sapiens, UniProt Q16539); conditions: read-out: Percent Control
How it was run: as §1

human kinome [11] = target: human kinome (Homo sapiens, UniProt Q15569); conditions: kinase TESK1 (Entrez TESK1); compound concentration 1000 nM; read-out: Percent Control
How it was run: as §1

human kinome [12] = target: human kinome (Homo sapiens, UniProt Q5S007); conditions: LRRK2; 100 nM; read-out: Percent Control
How it was run: as §1

human kinome [13] = target: human kinome (Homo sapiens, UniProt Q9UQB9); conditions: AURKC; 100 nM; read-out: Percent Control
How it was run: as §1

human kinome [14] = target: human kinome (Homo sapiens, UniProt P51957); conditions: read-out: Percent Control
How it was run: as §1

human kinome [15] = target: human kinome (Homo sapiens, UniProt Q32MK0); conditions: MLCK (Entrez MYLK3); 100 nM; read-out: Percent Control
How it was run: as §1

human kinome [16] = target: human kinome (Homo sapiens, UniProt Q13554); conditions: CAMK2B; 100 nM; read-out: Percent Control
How it was run: as §1

human kinome [17] = target: human kinome (Homo sapiens, UniProt P41240); conditions: CSK; 100 nM; read-out: Percent Control
How it was run: as §1

human kinome [18] = target: human kinome (Homo sapiens, UniProt P29376); conditions: LTK; 100 nM; read-out: Percent Control
How it was run: as §1

human kinome [19] = target: human kinome (Homo sapiens, UniProt Q6XUX3); conditions: kinase RIPK5 (Entrez DSTYK); compound concentration 1000 nM; read-out: Percent Control
How it was run: as §1

human kinome [20] = target: human kinome (Homo sapiens, UniProt P28482); conditions: ERK2 (Entrez MAPK1); 100 nM; read-out: Percent Control
How it was run: as §1

human kinome [21] = target: human kinome (Homo sapiens, UniProt P06239); conditions: LCK; 100 nM; read-out: Percent Control
How it was run: as §1

human kinome [22] = target: human kinome (Homo sapiens, UniProt O15111); conditions: IKK-alpha (Entrez CHUK); 100 nM; read-out: Percent Control
How it was run: as §1

human kinome [23] = target: human kinome (Homo sapiens, UniProt P42345); conditions: MTOR; 100 nM; read-out: Percent Control
How it was run: as §1

human kinome [24] = target: human kinome (Homo sapiens, UniProt O43283); conditions: LZK (Entrez MAP3K13); 100 nM; read-out: Percent Control
How it was run: as §1

human kinome [25] = target: human kinome (Homo sapiens, UniProt Q9UBF8); conditions: read-out: Percent Control
How it was run: as §1

human kinome [26] = target: human kinome (Homo sapiens, UniProt Q16288); conditions: kinase TRKC (Entrez NTRK3); compound concentration 1000 nM; read-out: Percent Control
How it was run: as §1

human kinome [27] = target: human kinome (Homo sapiens, UniProt Q06187); conditions: BTK; 100 nM; read-out: Percent Control
How it was run: as §1

human kinome [28] = target: human kinome (Homo sapiens, UniProt Q14289); conditions: read-out: Percent Control
How it was run: as §1

human kinome [29] = target: human kinome (Homo sapiens, UniProt P42338); conditions: read-out: Percent Control
How it was run: as §1

human kinome [30] = target: human kinome (Homo sapiens, UniProt P07948); conditions: LYN; 100 nM; read-out: Percent Control
How it was run: as §1

human kinome (Homo sapiens, UniProt P51957), sequence (P51957 whole entry): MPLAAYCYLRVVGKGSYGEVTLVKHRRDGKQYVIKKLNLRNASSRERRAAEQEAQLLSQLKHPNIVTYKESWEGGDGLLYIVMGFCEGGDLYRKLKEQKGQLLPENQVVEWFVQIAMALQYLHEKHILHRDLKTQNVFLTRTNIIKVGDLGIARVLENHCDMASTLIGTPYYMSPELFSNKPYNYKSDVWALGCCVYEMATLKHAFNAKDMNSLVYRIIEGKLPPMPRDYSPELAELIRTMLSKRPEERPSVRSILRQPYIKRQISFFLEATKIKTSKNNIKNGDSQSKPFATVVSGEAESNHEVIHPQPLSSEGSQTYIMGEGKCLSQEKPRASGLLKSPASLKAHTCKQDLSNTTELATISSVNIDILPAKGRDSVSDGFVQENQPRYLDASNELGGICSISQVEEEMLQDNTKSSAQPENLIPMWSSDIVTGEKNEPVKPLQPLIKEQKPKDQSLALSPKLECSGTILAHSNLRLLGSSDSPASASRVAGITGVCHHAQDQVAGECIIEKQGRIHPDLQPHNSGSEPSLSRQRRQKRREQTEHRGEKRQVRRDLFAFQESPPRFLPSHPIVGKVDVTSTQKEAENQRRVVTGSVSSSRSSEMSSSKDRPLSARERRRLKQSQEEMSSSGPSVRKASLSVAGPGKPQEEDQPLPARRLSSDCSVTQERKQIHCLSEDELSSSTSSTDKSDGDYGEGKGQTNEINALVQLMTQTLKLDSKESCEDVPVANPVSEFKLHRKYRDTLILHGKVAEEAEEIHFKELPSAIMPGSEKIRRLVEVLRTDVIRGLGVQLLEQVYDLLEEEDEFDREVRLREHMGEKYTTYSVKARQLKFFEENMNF
human kinome (Homo sapiens, UniProt P53778), sequence (P53778 whole entry): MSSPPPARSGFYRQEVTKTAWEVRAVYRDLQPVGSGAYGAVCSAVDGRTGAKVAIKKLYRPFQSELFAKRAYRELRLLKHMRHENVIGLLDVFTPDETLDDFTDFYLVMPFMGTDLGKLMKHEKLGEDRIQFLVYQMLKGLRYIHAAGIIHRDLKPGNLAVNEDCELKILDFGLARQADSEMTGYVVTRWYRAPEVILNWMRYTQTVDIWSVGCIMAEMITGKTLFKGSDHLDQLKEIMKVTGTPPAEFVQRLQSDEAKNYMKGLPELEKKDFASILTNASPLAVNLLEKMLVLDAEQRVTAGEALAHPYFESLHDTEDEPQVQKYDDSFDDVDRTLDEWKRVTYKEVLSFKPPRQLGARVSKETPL
human kinome (Homo sapiens, UniProt P42338), sequence (P42338 whole entry): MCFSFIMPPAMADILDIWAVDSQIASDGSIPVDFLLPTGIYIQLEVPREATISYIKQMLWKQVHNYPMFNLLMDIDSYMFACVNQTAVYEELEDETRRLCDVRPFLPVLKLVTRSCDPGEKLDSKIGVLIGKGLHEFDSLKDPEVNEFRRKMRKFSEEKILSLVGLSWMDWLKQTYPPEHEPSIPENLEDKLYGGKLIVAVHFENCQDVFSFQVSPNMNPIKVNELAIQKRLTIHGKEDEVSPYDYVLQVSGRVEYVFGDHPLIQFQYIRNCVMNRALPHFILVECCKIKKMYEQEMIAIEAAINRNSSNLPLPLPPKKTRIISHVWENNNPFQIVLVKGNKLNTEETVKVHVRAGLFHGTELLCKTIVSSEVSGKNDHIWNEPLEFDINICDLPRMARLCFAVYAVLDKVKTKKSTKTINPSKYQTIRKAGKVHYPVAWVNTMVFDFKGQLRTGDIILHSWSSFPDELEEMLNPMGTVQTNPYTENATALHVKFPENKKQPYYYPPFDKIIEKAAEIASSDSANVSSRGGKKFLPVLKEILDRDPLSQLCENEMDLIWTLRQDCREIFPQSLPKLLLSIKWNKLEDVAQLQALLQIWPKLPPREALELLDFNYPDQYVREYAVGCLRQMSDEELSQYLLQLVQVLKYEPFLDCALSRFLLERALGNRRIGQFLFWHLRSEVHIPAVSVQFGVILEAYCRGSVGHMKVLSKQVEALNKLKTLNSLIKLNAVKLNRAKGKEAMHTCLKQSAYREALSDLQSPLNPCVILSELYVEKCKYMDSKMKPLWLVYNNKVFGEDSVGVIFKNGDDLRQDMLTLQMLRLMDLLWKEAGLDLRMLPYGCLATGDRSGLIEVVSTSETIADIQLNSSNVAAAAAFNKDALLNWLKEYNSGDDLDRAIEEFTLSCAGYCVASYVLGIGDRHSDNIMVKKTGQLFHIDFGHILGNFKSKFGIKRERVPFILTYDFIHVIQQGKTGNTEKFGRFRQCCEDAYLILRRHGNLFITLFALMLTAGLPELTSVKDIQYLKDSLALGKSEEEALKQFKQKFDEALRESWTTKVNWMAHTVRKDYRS
human kinome (Homo sapiens, UniProt Q9UBF8), sequence (Q9UBF8 whole entry): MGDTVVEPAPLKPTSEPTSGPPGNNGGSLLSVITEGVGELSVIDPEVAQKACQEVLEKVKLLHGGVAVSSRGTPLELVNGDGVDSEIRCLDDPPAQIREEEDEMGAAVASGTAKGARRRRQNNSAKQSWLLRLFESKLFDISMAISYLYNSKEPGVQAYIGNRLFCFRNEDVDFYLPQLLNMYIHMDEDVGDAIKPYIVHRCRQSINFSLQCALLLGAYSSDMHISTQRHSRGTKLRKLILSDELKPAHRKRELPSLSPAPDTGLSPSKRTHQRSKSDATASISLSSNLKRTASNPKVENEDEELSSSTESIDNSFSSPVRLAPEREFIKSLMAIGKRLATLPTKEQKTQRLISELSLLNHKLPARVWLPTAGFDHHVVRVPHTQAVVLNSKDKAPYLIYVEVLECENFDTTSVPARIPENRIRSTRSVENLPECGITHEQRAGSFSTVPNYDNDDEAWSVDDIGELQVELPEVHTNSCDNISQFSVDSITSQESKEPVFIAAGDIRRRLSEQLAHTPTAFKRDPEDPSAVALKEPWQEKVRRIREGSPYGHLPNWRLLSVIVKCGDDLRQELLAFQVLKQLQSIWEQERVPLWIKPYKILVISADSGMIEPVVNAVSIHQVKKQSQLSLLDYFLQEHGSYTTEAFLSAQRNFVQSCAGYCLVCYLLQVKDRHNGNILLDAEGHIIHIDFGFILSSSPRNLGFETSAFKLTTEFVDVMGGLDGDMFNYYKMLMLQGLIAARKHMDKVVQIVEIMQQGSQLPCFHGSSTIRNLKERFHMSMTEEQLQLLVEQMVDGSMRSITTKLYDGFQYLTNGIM
human kinome (Homo sapiens, UniProt Q9Y2H1), sequence (Q9Y2H1 whole entry): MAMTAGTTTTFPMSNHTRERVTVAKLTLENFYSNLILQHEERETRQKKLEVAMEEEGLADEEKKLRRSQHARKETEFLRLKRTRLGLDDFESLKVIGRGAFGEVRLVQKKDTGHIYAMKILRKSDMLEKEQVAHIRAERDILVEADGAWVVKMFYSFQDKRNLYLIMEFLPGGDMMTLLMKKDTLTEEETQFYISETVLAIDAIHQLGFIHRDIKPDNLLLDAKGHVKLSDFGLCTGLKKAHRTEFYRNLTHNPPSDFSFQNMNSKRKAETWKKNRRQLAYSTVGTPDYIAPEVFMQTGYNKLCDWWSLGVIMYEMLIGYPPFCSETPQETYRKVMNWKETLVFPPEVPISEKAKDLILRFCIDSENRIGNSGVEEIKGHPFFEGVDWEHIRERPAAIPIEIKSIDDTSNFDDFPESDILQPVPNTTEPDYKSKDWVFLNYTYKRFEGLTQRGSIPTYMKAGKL
human kinome (Homo sapiens, UniProt Q14289), sequence (Q14289 whole entry): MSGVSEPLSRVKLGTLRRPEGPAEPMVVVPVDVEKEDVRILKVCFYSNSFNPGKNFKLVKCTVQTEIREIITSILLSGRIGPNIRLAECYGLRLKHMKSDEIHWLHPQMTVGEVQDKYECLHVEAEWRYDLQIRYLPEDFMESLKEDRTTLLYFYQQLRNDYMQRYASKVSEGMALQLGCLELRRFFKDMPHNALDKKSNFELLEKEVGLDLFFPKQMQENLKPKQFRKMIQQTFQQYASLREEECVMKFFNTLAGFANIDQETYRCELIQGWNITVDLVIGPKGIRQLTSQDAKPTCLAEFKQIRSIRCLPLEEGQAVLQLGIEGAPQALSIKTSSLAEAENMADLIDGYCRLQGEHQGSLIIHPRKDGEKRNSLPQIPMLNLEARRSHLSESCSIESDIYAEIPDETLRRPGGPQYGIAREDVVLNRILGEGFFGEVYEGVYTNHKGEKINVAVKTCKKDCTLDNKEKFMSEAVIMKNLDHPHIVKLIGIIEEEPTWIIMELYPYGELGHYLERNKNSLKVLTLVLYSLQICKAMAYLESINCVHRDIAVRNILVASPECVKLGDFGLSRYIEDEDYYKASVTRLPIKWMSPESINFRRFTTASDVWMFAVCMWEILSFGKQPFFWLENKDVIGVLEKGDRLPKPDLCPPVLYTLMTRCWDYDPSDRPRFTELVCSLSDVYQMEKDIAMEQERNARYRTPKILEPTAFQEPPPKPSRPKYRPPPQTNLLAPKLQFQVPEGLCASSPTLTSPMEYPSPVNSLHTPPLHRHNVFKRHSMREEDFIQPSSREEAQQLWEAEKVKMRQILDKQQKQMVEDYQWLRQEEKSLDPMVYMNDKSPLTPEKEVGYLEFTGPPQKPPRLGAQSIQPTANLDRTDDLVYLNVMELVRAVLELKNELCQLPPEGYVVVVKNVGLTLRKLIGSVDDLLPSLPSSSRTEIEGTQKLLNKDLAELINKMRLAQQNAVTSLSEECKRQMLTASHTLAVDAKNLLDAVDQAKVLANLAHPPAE
human kinome (Homo sapiens, UniProt Q16539), sequence (Q16539 whole entry): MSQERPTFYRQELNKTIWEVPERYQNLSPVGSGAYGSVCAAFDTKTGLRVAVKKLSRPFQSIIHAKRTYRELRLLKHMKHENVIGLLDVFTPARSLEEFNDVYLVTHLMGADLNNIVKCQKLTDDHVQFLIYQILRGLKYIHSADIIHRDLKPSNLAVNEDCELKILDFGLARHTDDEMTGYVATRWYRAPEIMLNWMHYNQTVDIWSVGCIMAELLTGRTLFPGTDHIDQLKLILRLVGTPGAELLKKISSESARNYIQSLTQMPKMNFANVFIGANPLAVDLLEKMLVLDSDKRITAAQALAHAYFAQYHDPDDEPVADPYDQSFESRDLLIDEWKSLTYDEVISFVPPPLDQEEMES

Molecule COc1cc(F)ccc1-c1cc(Nc2cc(CS(C)(=N)=O)ccn2)ncc1F (centres unmarked) [VIP152] has a remaining binding at 0.1 µM (human kinome [1]) of 100%, a remaining binding at 0.1 µM (human kinome [2]; NEK3, 100 nM) of 98% and a remaining binding at 1 µM (human kinome [2]; kinase NEK3 (Entrez NEK3), compound concentration 1000 nM) of 62%. For the same molecule, the remaining binding at 1 µM (human kinome [3]; kinase p38-gamma (Entrez MAPK12), compound concentration 1000 nM) was 100%, the remaining binding at 0.1 µM (human kinome [3]; p38-gamma (Entrez MAPK12), 100 nM) was 76% and the remaining binding at 0.1 µM (human kinome [4]) was 99%. For the same molecule, the remaining binding at 0.1 µM (human kinome [5]) was 79%, the remaining binding at 1 µM (human kinome [6]) was 98% and the remaining binding at 1 µM (human kinome [7]) was 80%. The remaining binding at 0.1 µM (human kinome [8]) was 100%, the remaining binding at 0.1 µM (human kinome [9]; NDR2 (Entrez STK38L), 100 nM) was 100% and the remaining binding at 1 µM (human kinome [9]; kinase NDR2 (Entrez STK38L), compound concentration 1000 nM) was 100%. It also gave a remaining binding at 1 µM (human kinome [10]; kinase p38-alpha (Entrez MAPK14), compound concentration 1000 nM) of 100%, a remaining binding at 0.1 µM (human kinome [10]; p38-alpha (Entrez MAPK14), 100 nM) of 100% and a remaining binding at 1 µM (human kinome [11]) of 92%. The remaining binding at 0.1 µM (human kinome [12]) was 100%, the remaining binding at 0.1 µM (human kinome [13]) was 100% and the remaining binding at 0.1 µM (human kinome [14]; NEK4, 100 nM) was 100%. It also gave a remaining binding at 1 µM (human kinome [14]; kinase NEK4 (Entrez NEK4), compound concentration 1000 nM) of 100%, a remaining binding at 0.1 µM (human kinome [15]) of 100% and a remaining binding at 0.1 µM (human kinome [16]) of 100%. It also gave a remaining binding at 0.1 µM (human kinome [17]) of 100%, a remaining binding at 0.1 µM (human kinome [18]) of 96% and a remaining binding at 1 µM (human kinome [19]) of 42%. It also gave a remaining binding at 0.1 µM (human kinome [20]) of 100%, a remaining binding at 0.1 µM (human kinome [21]) of 100% and a remaining binding at 0.1 µM (human kinome [22]) of 100%. It also gave a remaining binding at 0.1 µM (human kinome [23]) of 59%, a remaining binding at 0.1 µM (human kinome [24]) of 100% and a remaining binding at 0.1 µM (human kinome [25]; PIK4CB (Entrez PI4KB), 100 nM) of 100%. For the same molecule, the remaining binding at 1 µM (human kinome [25]; kinase PIK4CB (Entrez PI4KB), compound concentration 1000 nM) was 95%, the remaining binding at 1 µM (human kinome [26]) was 26% and the remaining binding at 0.1 µM (human kinome [27]) was 100%. It also gave a remaining binding at 0.1 µM (human kinome [28]; PYK2 (Entrez PTK2B), 100 nM) of 100%, a remaining binding at 1 µM (human kinome [28]; kinase PYK2 (Entrez PTK2B), compound concentration 1000 nM) of 90% and a remaining binding at 0.1 µM (human kinome [29]; PIK3CB, 100 nM) of 100%. The remaining binding at 1 µM (human kinome [29]; kinase PIK3CB (Entrez PIK3CB), compound concentration 1000 nM) was 100% and the remaining binding at 0.1 µM (human kinome [30]) was 100%.

From publication PMC9898036, “VIP152 is a selective CDK9 inhibitor with pre-clinical in vitro and in vivo efficacy in chronic lymphocytic leukemia” (Leukemia, 2022)
